Reference: patent US4363805A, “Aminodesoxy-1.4;3.6-dianhydrohexitol nitrates and pharmaceutical composition” (Firma Willmar Schwabe, priority 1980, dated 1982)

Tests used:
[1] = tested on: isolated guinea pig hearts; test: Experiments on Langendorff hearts (coronary flowthrough, inotropism, frequency); conditions: Cavia porcellus, read-out: flowthrough, percentage change with regard to the initial value
Method: After reaching the stationary state in the 30th minute, the hearts were each perfused with 50 ml. tyrode solution with a content of test substance of, in each case, 25 μg./ml. Each test substance was tested on 3-6 hearts.
In each case, there was measured the inotropism, the flowthrough and the frequency, whereby the values given in Table I are average values of the percentage changes in comparison with the initial values.

mongrel cats = test: Inotropic and heart-circulatory effectiveness on narcotised cats, intravenous; assay type: in vivo, cat; conditions: 6 animals; for blood pressure before / dp/dt (inotropism) before / heart frequency before: before administration
narcotised guinea pigs = test: Blood pressure experiments on guinea pigs, i.v.; assay type: in vivo, guinea pig; conditions: for blood pressure before: before administration
[2] = Acute toxicity, intravenous, mice; assay type: in vivo; conditions: mouse, in vivo; intravenous, within 24 hours; read-out: Evaluated LD50-range
female NMRI-albino mice = test: Acute toxicity, intravenous, mice; assay type: in vivo; conditions: within 24 hours

## COc1ccc(CCCN[C@H]2CO[C@H]3[C@@H]2OC[C@@H]3O[N+](=O)[O-])cc1OC [31 b]
[1]
  activation at 25 µg/mL: 79.4%

## CN(CCc1ccccc1)[C@H]1CO[C@H]2[C@@H]1OC[C@@H]2O[N+](=O)[O-] [Example 20, 5-[N-(2-Phenylethyl)-N-methylamino]-5-desoxy-1.4;3.6-dianhydro-L-iditol 2-nitrate]
[1]
  activation at 25 µg/mL: 66.9%

## O=[N+]([O-])O[C@H]1CO[C@H]2[C@@H]1OC[C@H]2NCC(O)COc1cccc2ccccc12 (stereo partly drawn) [Example 55, 5-[2-Hydroxy-3-(1-naphthyloxy)-propylamino]-5-desoxy-1.4;3.6-dianhydro-D-glucitol 2-nitrate]
Mongrel cats; 0.25 mg/kg i.v.
  blood pressure before: 113.8 mm.Hg
  dp/dt (inotropism) before: 5633 mm.Hg/sec
  heart frequency before: 161.7 min⁻¹
  blood pressure WD: 4.8 min
  blood pressure after: 107.0 mm.Hg
  blood pressure Δ: -6.8 mm.Hg
  dp/dt (inotropism) after: 5200 mm.Hg/sec
  dp/dt (inotropism) Δ: -433 mm.Hg/sec
  dp/dt WD: 4.2 min
  heart frequency after: 164.7 min⁻¹
  heart frequency Δ: +3.0 min^-1
Mongrel cats; 0.50 mg/kg i.v.
  blood pressure WD: 2.8 min
  blood pressure after: 98.8 mm.Hg
  blood pressure Δ: -12.7 mm.Hg
  dp/dt (inotropism) after: 4667 mm.Hg/sec
  dp/dt (inotropism) Δ: -533 mm.Hg/sec
  dp/dt WD: 5.2 min
  heart frequency after: 157.3 min⁻¹
  heart frequency Δ: +2.0 min^-1
Mongrel cats; 1.00 mg/kg i.v.
  blood pressure WD: 5.2 min
  blood pressure after: 96.8 mm.Hg
  blood pressure Δ: -18.2 mm.Hg
  dp/dt (inotropism) after: 4000 mm.Hg/sec
  dp/dt (inotropism) Δ: -1117 mm.Hg/sec
  dp/dt WD: 8.9 min
  heart frequency after: 154.0 min⁻¹
  heart frequency Δ: -1.3 min⁻¹
Mongrel cats; 2.50 mg/kg i.v.
  blood pressure WD: 6.3 min
  blood pressure after: 94.3 mm.Hg
  blood pressure Δ: -26.0 mm.Hg
  dp/dt (inotropism) after: 3517 mm.Hg/sec
  dp/dt (inotropism) Δ: -1266 mm.Hg/sec
  dp/dt WD: > 7.8 min
  heart frequency after: 148.0 min⁻¹
  heart frequency Δ: 0 min⁻¹
[1]
  activation at 25 µg/mL: 203%

## CN(CC=Cc1ccccc1)[C@H]1CO[C@H]2[C@@H]1OC[C@@H]2O[N+](=O)[O-] [Example 24, 5-(N-Cinnamyl-N-methylamino)-5-desoxy-1.4;3.6-dianhydro-L-iditol 2-nitrate]
[1]
  activation at 25 µg/mL: 200%

## O=[N+]([O-])O[C@H]1CO[C@H]2[C@@H]1OC[C@@H]2NCCc1ccccc1 [Example 27, 5-(2-Phenylethylamino)-5-desoxy-1.4;3.6-dianhydro-L-iditol 2-nitrate]
[1]
  activation at 25 µg/mL: 67.2%

## CN(CCCCCc1ccccc1)[C@H]1CO[C@H]2[C@@H]1OC[C@@H]2O[N+](=O)[O-] [Example 23, 5-[N-Methyl-N-(5-phenylpentyl)-amino]-5-desoxy-1.4;3.6-dianhydro-L-iditol 2-nitrate]
[1]
  activation at 25 µg/mL: 156%

## O=[N+]([O-])O[C@H]1CO[C@H]2[C@@H]1OC[C@@H]2NC12CC3CC(CC(C3)C1)C2 [11 b]
[1]
  activation at 25 µg/mL: 145%

## CC(=O)N[C@H]1CO[C@H]2[C@@H]1OC[C@@H]2O[N+](=O)[O-] [Example 6, 5-Acetylamino-5-desoxy-1.4;3.6-dianhydro-L-iditol 2-nitrate]
Narcotised guinea pigs; 0.25 mg/kg i.v.
  blood pressure after: 63.75 ± 7.32 mm.Hg
  blood pressure Δ: -7.00 mm.Hg
  blood pressure before: 70.75 ± 6.36 mm.Hg
Narcotised guinea pigs; 1.00 mg/kg i.v.
  blood pressure after: 55.75 ± 7.94 mm.Hg
  blood pressure Δ: -14.50 mm.Hg
Narcotised guinea pigs; 2.50 mg/kg i.v.
  blood pressure after: 47.75 ± 5.88 mm.Hg
  blood pressure Δ: -17.75 mm.Hg
[2]
  LD50 at 24 h: > 200 mg/kg
Female NMRI-albino mice; 200 mg/kg i.v.
  Frequency of death: 0/3

## N#Cc1ccccc1OCC(O)CN[C@H]1CO[C@H]2[C@@H]1OC[C@@H]2O[N+](=O)[O-] (stereo partly drawn) [Example 50, 5-[2-Hydroxy-3-(2-cyanophenoxy)-propylamino]-5-desoxy-1.4;3.6-dianhydro-L-iditol 2-nitrate]
Mongrel cats; 0.25 mg/kg i.v.
  blood pressure before: 121.0 mm.Hg
  dp/dt (inotropism) before: 6533 mm.Hg/sec
  heart frequency before: 190.7 min⁻¹
  blood pressure WD: 8.5 min
  blood pressure after: 108.3 mm.Hg
  blood pressure Δ: -12.7 mm.Hg
  dp/dt (inotropism) after: 6033 mm.Hg/sec
  dp/dt (inotropism) Δ: -500 mm.Hg/sec
  dp/dt WD: 8.2 min
  heart frequency after: 195.3 min⁻¹
  heart frequency Δ: +4.6 min^-1
Mongrel cats; 0.50 mg/kg i.v.
  blood pressure WD: 9.8 min
  blood pressure after: 102.2 mm.Hg
  blood pressure Δ: -18.0 mm.Hg
  dp/dt (inotropism) after: 5133 mm.Hg/sec
  dp/dt (inotropism) Δ: -1267 mm.Hg/sec
  dp/dt WD: 8.2 min
  heart frequency after: 195.3 min⁻¹
  heart frequency Δ: +3.3 min^-1
Mongrel cats; 1.00 mg/kg i.v.
  blood pressure WD: 14.8 min
  blood pressure after: 94.2 mm.Hg
  blood pressure Δ: -27.8 mm.Hg
  dp/dt (inotropism) after: 4200 mm.Hg/sec
  dp/dt (inotropism) Δ: -2067 mm.Hg/sec
  dp/dt WD: 14.8 min
  heart frequency after: 191.7 min⁻¹
  heart frequency Δ: 0 min⁻¹
Mongrel cats; 2.50 mg/kg i.v.
  blood pressure WD: > 10 min
  blood pressure after: 77.5 mm.Hg
  blood pressure Δ: -45.8 mm.Hg
  dp/dt (inotropism) after: 2733 mm.Hg/sec
  dp/dt (inotropism) Δ: -3584 mm.Hg/sec
  dp/dt WD: > 10 min
  heart frequency after: 178.7 min⁻¹
  heart frequency Δ: -10.3 min⁻¹
Narcotised guinea pigs; 0.25 mg/kg i.v.
  blood pressure after: 39.25 ± 6.97 mm.Hg
  blood pressure Δ: -16.25 mm.Hg
  blood pressure before: 55.50 ± 7.35 mm.Hg
Narcotised guinea pigs; 1.00 mg/kg i.v.
  blood pressure after: 31.00 ± 3.94 mm.Hg
  blood pressure Δ: -21.50 mm.Hg
Narcotised guinea pigs; 2.50 mg/kg i.v.
  blood pressure after: 22.75 ± 1.80 mm.Hg
  blood pressure Δ: -27.75 mm.Hg
[2]
  LD50 at 24 h: 100 to 200 mg/kg
Female NMRI-albino mice; 100 mg/kg i.v.
  Frequency of death: 0/3
Female NMRI-albino mice; 200 mg/kg i.v.
  Frequency of death: 4/6

## O=[N+]([O-])O[C@H]1CO[C@H]2[C@@H]1OC[C@@H]2NCCCCc1ccccc1 [Example 29, 5-(4-Phenylbutylamino)-5-desoxy-1.4;3.6-dianhydro-L-iditol 2-nitrate]
Mongrel cats; 0.25 mg/kg i.v.
  blood pressure before: 106.8 mm.Hg
  dp/dt (inotropism) before: 6480 mm.Hg/sec
  heart frequency before: 209.0 min⁻¹
  blood pressure WD: 3.2 min
  blood pressure after: 91.3 mm.Hg
  blood pressure Δ: -15.5 mm.Hg
  dp/dt (inotropism) after: 6000 mm.Hg/sec
  dp/dt (inotropism) Δ: -480 mm.Hg/sec
  dp/dt WD: 1.6 min
  heart frequency after: 204.3 min⁻¹
  heart frequency Δ: -4.7 min⁻¹
Mongrel cats; 0.50 mg/kg i.v.
  blood pressure WD: 4.1 min
  blood pressure after: 91.3 mm.Hg
  blood pressure Δ: -22.0 mm.Hg
  dp/dt (inotropism) after: 6000 mm.Hg/sec
  dp/dt (inotropism) Δ: -1040 mm.Hg/sec
  dp/dt WD: 8.2 min
  heart frequency after: 204.7 min⁻¹
  heart frequency Δ: -7.3 min⁻¹
Mongrel cats; 1.00 mg/kg i.v.
  blood pressure WD: 11.2 min
  blood pressure after: 90.7 mm.Hg
  blood pressure Δ: -34.0 mm.Hg
  dp/dt (inotropism) after: 5000 mm.Hg/sec
  dp/dt (inotropism) Δ: -2360 mm.Hg/sec
  dp/dt WD: 25.5 min
  heart frequency after: 197.7 min⁻¹
  heart frequency Δ: -11.7 min⁻¹
Mongrel cats; 2.50 mg/kg i.v.
  blood pressure WD: > 10 min
  blood pressure after: 80.8 mm.Hg
  blood pressure Δ: -48.7 mm.Hg
  dp/dt (inotropism) after: 3920 mm.Hg/sec
  dp/dt (inotropism) Δ: -3580 mm.Hg/sec
  dp/dt WD: > 10 min
  heart frequency after: 182.0 min⁻¹
  heart frequency Δ: -23.0 min⁻¹
[2]
  LD50 at 24 h: < 50 mg/kg
Female NMRI-albino mice; 50 mg/kg i.v.
  Frequency of death: 5/6
Female NMRI-albino mice; 100 mg/kg i.v.
  Frequency of death: 5/6
Female NMRI-albino mice; 200 mg/kg i.v.
  Frequency of death: 3/3

## O=[N+]([O-])O[C@H]1CO[C@H]2[C@@H]1OC[C@@H]2NCCCOc1ccccc1 [Example 36, 5-(3-Phenoxypropylamino)-5-desoxy-1.4;3.6-dianhydro-L-iditol 2-nitrate]
Mongrel cats; 0.25 mg/kg i.v.
  blood pressure before: 114.5 mm.Hg
  dp/dt (inotropism) before: 7933 mm.Hg/sec
  heart frequency before: 200.3 min⁻¹
  blood pressure WD: 5.1 min
  blood pressure after: 97.7 mm.Hg
  blood pressure Δ: -19.8 mm.Hg
  dp/dt (inotropism) after: 7433 mm.Hg/sec
  dp/dt (inotropism) Δ: -500 mm.Hg/sec
  dp/dt WD: 3.3 min
  heart frequency after: 204.3 min⁻¹
Mongrel cats; 0.50 mg/kg i.v.
  blood pressure WD: 8.5 min
  blood pressure after: 84.5 mm.Hg
  blood pressure Δ: -28.0 mm.Hg
  dp/dt (inotropism) after: 6650 mm.Hg/sec
  dp/dt (inotropism) Δ: -1183 mm.Hg/sec
  dp/dt WD: 7.9 min
  heart frequency after: 200.3 min⁻¹
  heart frequency Δ: -3.7 min⁻¹
Mongrel cats; 1.00 mg/kg i.v.
  blood pressure WD: 14.8 min
  blood pressure after: 74.3 mm.Hg
  blood pressure Δ: -42.5 mm.Hg
  dp/dt (inotropism) after: 5467 mm.Hg/sec
  dp/dt (inotropism) Δ: -2416 mm.Hg/sec
  dp/dt WD: 19.0 min
  heart frequency after: 194.3 min⁻¹
  heart frequency Δ: -8.0 min⁻¹
Mongrel cats; 2.50 mg/kg i.v.
  blood pressure WD: > 10 min
  blood pressure after: 62.5 mm.Hg
  blood pressure Δ: -58.3 mm.Hg
  dp/dt (inotropism) after: 4000 mm.Hg/sec
  dp/dt (inotropism) Δ: -3883 mm.Hg/sec
  dp/dt WD: 10 min
  heart frequency after: 175.3 min⁻¹
  heart frequency Δ: -22.4 min⁻¹
[2]
  LD50 at 24 h: 50 to 100 mg/kg
Female NMRI-albino mice; 50 mg/kg i.v.
  Frequency of death: 0/3
Female NMRI-albino mice; 100 mg/kg i.v.
  Frequency of death: 5/6
